Results from patent US20210017193A1, “CONDENSED BICYCLIC HETEROCYCLIC DERIVATIVES AS PEST CONTROL AGENTS” (Bayer Aktiengesellschaft, priority 2018, published 2021).

Columns and labels:
[1] = log P determination by HPLC on reversed-phase column (C18), acidic range; type: physicochemical; settings: LC-UV, formic acid in water/acetonitrile
Procedure: log P Values The log P values were determined according to EEC Directive 79/831 Annex V.A8 by HPLC (high-performance liquid chromatography) on a reversed-phase column (C18) using the following methods: ^[a] […] Calibration was carried out using a homologous series of straight-chain alkan-2-ones (having 3 to 16 carbon atoms) with known log P values. The values between successive alkanones are determined by linear regression.

Boophilus microplus = Boophilus microplus injection test; type: in vivo; settings: 20 μg/animal, injection into engorged adult female cattle ticks, assessed after 7 days
Procedure: Boophilus microplus—Injection Test Solvent: dimethyl sulfoxide To produce a suitable active compound formulation, 10 mg of active compound are mixed with 0.5 ml of solvent and the concentrate is diluted to the desired concentration with solvent. 1 μl of the active compound solution is injected into the abdomen of 5 engorged adult female cattle ticks (Boophilus microplus). The animals are transferred into dishes and kept in a climate-controlled room. Efficacy is assessed after 7 days by laying of fertile eggs. Eggs which are not visibly fertile are stored in a climate-controlled cabinet until the larvae hatch after about 42 days. An efficacy of 100% means that none of the ticks has laid any fertile eggs; 0% means that all the eggs are fertile.

Myzus persicae [2] = assay: Myzus persicae oral test; type: in vivo; settings: 120 h, oral uptake from microtitre plates, after 5 days, read-out: efficacy (aphids killed)
Procedure: Myzus persicae—Oral Test Solvent: 100 parts by weight of acetone To produce a suitable preparation of active compound, 1 part by weight of active compound is dissolved using the specified parts by weight of solvent and made up with water until the desired concentration is attained. 50 μl of the active compound preparation are transferred into microtitre plates and made up to a final volume of 200 μl with 150 μl of IPL41 insect medium (33%+15% sugar). Subsequently, the plates are sealed with parafilm, which a mixed population of green peach aphids (Myzus persicae) within a second microtitre plate is able to puncture and imbibe the solution through. After 5 days, the efficacy in % is determined. 100% means that all the aphids have been killed; 0% means that no aphids have been killed.

Spodoptera frugiperda = Spodoptera frugiperda spray test; type: in vivo; settings: 100 g/ha, maize leaf discs, after 7 days
Procedure: Spodoptera frugiperda—Spray Test
(§1) Solvent: 78.0 parts by weight of acetone • • 1.5 parts by weight of dimethylformamide
(§2) Emulsifier: alkylaryl polyglycol ether
(§3) To produce a suitable active compound preparation, 1 part by weight of active compound is dissolved using the stated parts by weight of solvent and made up with water containing an emulsifier concentration of 1000 ppm until the desired concentration is attained. To produce further test concentrations, the formulation is diluted with emulsifier-containing water.
Leaf discs of maize (Zea mays) are sprayed with an active compound formulation of the desired concentration and, after drying, populated with caterpillars of the fall armyworm (Spodopterafrugiperda).
After 7 days, the efficacy in % is determined. 100% means that all the caterpillars have been killed; 0% means that no caterpillar has been killed.

Ctenocephalides felis = Ctenocephalides felis oral test; type: in vivo; settings: 100 ppm in citrated cattle blood, adult cat fleas, after 2 days
Procedure: Ctenocephalides felis—Oral Test
Solvent: dimethyl sulfoxide
To produce a suitable active compound formulation, 10 mg of active compound are mixed with 0.5 ml of dimethyl sulfoxide. Dilution with citrated cattle blood gives the desired concentration.
About 20 unfed adult cat fleas (Ctenocephalidesfelis) are placed into a chamber which is closed at the top and bottom with gauze. A metal cylinder whose bottom end is closed with parafilm is placed onto the chamber. The cylinder contains the blood/active compound formulation, which can be imbibed by the fleas through the parafilm membrane.
After 2 days, the kill in % is determined. 100% means that all of the fleas have been killed; 0% means that none of the fleas have been killed.

Phaedon cochleariae = Phaedon cochleariae spray test; type: in vivo; settings: 100 g/ha, Chinese cabbage leaf discs, after 7 days
Procedure: Phaedon cochleariae—Spray Test
as §1, §2, §3
Discs of Chinese cabbage leaves (Brassica pekinensis) are sprayed with an active compound formulation of the desired concentration and, after drying, populated with larvae of the mustard beetle (Phaedon cochleariae).
After 7 days, the efficacy in % is determined. 100% means that all the beetle larvae have been killed; 0% means that no beetle larvae have been killed.

Myzus persicae [3] = assay: Myzus persicae spray test; type: in vivo; settings: foliar, 120 h, Chinese cabbage leaf discs, after 5 days, read-out: efficacy (aphids killed)
Procedure: Myzus persicae—Spray Test Solvent: 78 parts by weight of acetone • • 1.5 parts by weight of dimethylformamide Emulsifier: alkylaryl polyglycol ether To produce a suitable active compound preparation, 1 part by weight of active compound is dissolved using the stated parts by weight of solvent and made up with water containing an emulsifier concentration of 1000 ppm until the desired concentration is attained. To produce further test concentrations, the formulation is diluted with emulsifier-containing water. Discs of Chinese cabbage leaves (Brassica pekinensis) infested by all stages of the green peach aphid (Myzus persicae) are sprayed with an active compound formulation of the desired concentration. After 5 days, the efficacy in % is determined. 100% means that all the aphids have been killed; 0% means that no aphids have been killed.

Meloidogyne incognita = Meloidogyne incognita test; type: in vivo; settings: 20 ppm, lettuce in sand, after 14 days
Procedure: Meloidogyne incognita test Solvent: 125.0 parts by weight of acetone To produce a suitable active compound formulation, 1 part by weight of active compound is mixed with the stated amount of solvent and the concentrate is diluted to the desired concentration with water. Vessels are filled with sand, active compound solution, an egg/larvae suspension of the southern root-knot nematode (Meloidogyne incognita) and lettuce seeds. The lettuce seeds germinate and the plants develop. The galls develop on the roots. After 14 days, the nematicidal efficacy in % is determined by the formation of galls. 100% means that no galls were found; 0% means that the number of galls on the treated plants corresponds to the untreated control.

Diabrotica balteata = Diabrotica balteata spray test; type: in vivo; settings: 160 μg/cavity, sprayed germinated wheat grains, beetle larvae, after 7 days
Procedure: Diabrotica balteata—Spray Test Solvent: 78 parts by weight of acetone • • 1.5 parts by weight of dimethylformamide Emulsifier: alkylaryl polyglycol ether To produce a suitable active compound preparation, 1 part by weight of active compound is dissolved using the stated parts by weight of solvent and made up with water containing an emulsifier concentration of 1000 ppm until the desired concentration is attained. To produce further test concentrations, the formulation is diluted with emulsifier-containing water. Pre-swollen wheat grains (Triticum aestivum) are incubated in a multiwell plate filled with agar and a little water for one day (5 seed grains per cavity). The germinated wheat grains are sprayed with an active compound preparation of the desired concentration. Subsequently, each cavity is infected with 10-20 beetle larvae of Diabrotica balteata. After 7 days, the efficacy in % is determined. 100% means that all wheat plants have grown as in the untreated, uninfected control; 0% means that no wheat plant has grown.

Tetranychus urticae = Tetranychus urticae spray test, OP-resistant; type: in vivo; settings: 100 g/ha, bean leaf discs, after 6 days
Procedure: Tetranychus urticae—Spray Test, OP-Resistant
as §1, §2, §3
Discs of bean leaves (Phaseolus vulgaris) infested with all stages of the greenhouse red spider mite (Tetranychus urticae) are sprayed with an active compound formulation of the desired concentration.
After 6 days, the efficacy in % is determined. 100% means that all the spider mites have been killed; 0% means that no spider mites have been killed.

| Compound | chromatographic logP [1] | pest or weed control at 4 ppm (Myzus persicae [2]) [%] | efficacy (caterpillars killed) (Spodoptera frugiperda) [%] | pest or weed control at 100 g/ha (Myzus persicae [3]) [%] | efficacy (Diabrotica balteata) [%] | other results |
| --- | --- | --- | --- | --- | --- | --- |
| Cn1c(C(F)(F)F)cc2nc(-c3nc4n(c3Br)CCC(C)(C)C4)n(C)c2c1=O [2-(3-Bromo-7,7-dimethyl-6,8-dihydro-5H-imidazo[1,2-a]pyridin-2-yl)-3,5-dimethyl-6-(trifluoromethyl)imidazo[4,5-c]pyridin-4-one] | 3.14 | – | – | – | – | – |
| CC1(C)CCn2c(nc(C(=O)O)c2Br)C1 [3-Bromo-7,7-dimethyl-6,8-dihydro-5H-imidazo[1,2-a]pyridine-2-carboxylicacid] | 0.67 | – | – | – | – | – |
| CCS(=O)(=O)c1c(-c2nc3cc(C(F)(F)F)n(C)c(=O)c3n2C)nc2cc(C(F)(F)F)ccn12 [Example I-01, 2-[3-(Ethylsulfonyl)-7-(trifluoromethyl)imidazo[1,2-a]pyridin-2-yl]-3,5-dimethyl-6-(trifluoromethyl)-3,5-dihydro-4H-imidazo[4,5-c]pyridin-4-one] | 3.2 | 100 | 100 | – | – | efficacy (laying of fertile eggs) (Boophilus microplus): 100%; efficacy (kill in %) (Ctenocephalides felis): 95% |
| CCS(=O)(=O)c1c(-c2nc3cc(C(F)(F)F)n(C)c(=O)c3n2C)nc2cc(C3(C#N)CC3)ccn12 [Example I-02, 1-{2-[3,5-Dimethyl-4-oxo-6-(trifluoromethyl)-4,5-dihydro-3H-imidazo [4,5-c]pyridin-2-yl]-3-(ethylsulfonyl)imidazo[1,2-a]pyridin-7-yl}cyclopropanecarbonitrile] | 2.59 | 100 | 100 | 100 | – | efficacy (beetle larvae killed) (Phaedon cochleariae): 100%; nematicidal efficacy (formation of galls) (Meloidogyne incognita): 100%; efficacy (kill in %) (Ctenocephalides felis): 100% |
| CCS(=O)(=O)c1c(-c2nc3cc(C(F)(F)F)n(C)c(=O)c3n2C)nc2n1CCCC2 [Example I-03, 2-[3-(Ethylsulfonyl)-5,6,7,8-tetrahydroimidazo[1,2-a]pyridin-2-yl]-3,5-dimethyl-6-(trifluoromethyl)-3,5-dihydro-4H-imidazo[4,5-c]pyridin-4-one] | 2.03 | 100 | – | 90 | – | – |
| CCS(=O)(=O)c1c(-c2nc3cc(C(F)(F)F)n(C)c(=O)c3n2C)nc2n1CC(C)CC2 (centres unmarked) [Example I-04] | – | 100 | – | 100 | – | – |
| CCS(=O)(=O)c1c(-c2nc3cc(C(F)(F)F)n(C)c(=O)c3n2C)nc2n1CCC(C)C2 (centres unmarked) [Example I-05] | – | 100 | – | 100 | – | nematicidal efficacy (formation of galls) (Meloidogyne incognita): 90% |
| CCS(=O)(=O)c1c(-c2nc3cc(C(F)(F)F)n(C)c(=O)c3n2C)nc2n1CCC(C(F)(F)F)C2 (centres unmarked) [Example I-06] | – | 100 | 100 | – | 100 | – |
| CCS(=O)(=O)c1c(-c2nc3cc(C(F)(F)F)n(C)c(=O)c3n2C)nc2cc(C(F)(F)C3CC3)ccn12 [Example I-07] | – | 100 | 100 | – | 100 | – |
| CCS(=O)(=O)c1c(-c2nc3cc(C(F)(F)F)n(C)c(=O)c3n2C)nc2cc(C(=O)C3CC3)ccn12 [Example I-08] | – | 100 | 100 | 90 | 100 | – |
| CCS(=O)(=O)c1c(-c2nc3cc(C(F)(F)F)n(C)c(=O)c3n2C)nc2n1CCC(C)C2C (centres unmarked) [Example I-09] | – | 100 | – | 90 | 100 | efficacy (spider mites killed) (Tetranychus urticae): 90% |
| CCS(=O)(=O)c1c(-c2nc3cc(C(F)(F)F)n(C)c(=O)c3n2C)nc2n1CCC(C)(C)C2 [Example I-10, 2-(3-Ethylsulfonyl-7,7-dimethyl-6,8-dihydro-5H-imidazo[1,2-a]pyridin-2-yl)-3,5-dimethyl-6-(trifluoromethyl)imidazo[4,5-c]pyridin-4-one] | 2.66 | 100 | – | 90 | 100 | – |
| CCS(=O)(=O)c1c(-c2nc3cc(C(F)(F)F)n(C)c(=O)c3n2C)nc2n1CCCC2C (centres unmarked) [Example I-11] | – | 100 | – | 90 | 100 | – |
| CCS(=O)(=O)c1c(-c2nc3cc(C(F)(F)F)n(C)c(=O)c3n2C)nc2cc(S(=O)(=O)C3CC3)ccn12 [Example I-12, 2-[7-(Cyclopropylsulfonyl)-3-(ethylsulfonyl)imidazo[1,2-a]pyridin-2-yl]-3,5-dimethyl-6-(trifluoromethyl)-3,5-dihydro-4H-imidazo[4,5-c]pyridin-4-one] | 2.59 | 100 | 100 | – | 100 | – |
